Reference: the NIST ThermoML archive (doi:10.1021/je5010214)

Details: Liquid, Vibrating tube method

CC(C)CO [2-methyl-1-propanol]
Details	mass density [kg/m3]
343.15 K, 50016 kPa	802.401
343.15 K, 52079 kPa	803.724
343.15 K, 54997 kPa	805.581
343.15 K, 57987 kPa	807.46
343.15 K, 62074 kPa	809.959
343.15 K, 65051 kPa	811.734
343.15 K, 66170 kPa	812.401
343.16 K, 60015 kPa	808.691
348.15 K, 94 kPa	756.672
348.15 K, 293.8 kPa	756.914
348.15 K, 481.9 kPa	757.128
348.15 K, 763.5 kPa	757.435
348.15 K, 1011 kPa	757.701
348.15 K, 1981.1 kPa	758.826
348.15 K, 3073.2 kPa	759.88
348.15 K, 5089.9 kPa	762.131
348.15 K, 7034.6 kPa	764.092
348.15 K, 9052.5 kPa	766.106
348.15 K, 9991.3 kPa	767.026
348.15 K, 15042 kPa	771.822
348.15 K, 17922 kPa	774.408
348.15 K, 19893 kPa	776.137
348.15 K, 22033 kPa	777.985
348.15 K, 22381 kPa	778.265
348.15 K, 28023 kPa	782.927
348.15 K, 29922 kPa	784.471
348.15 K, 33999 kPa	787.493
348.15 K, 34980 kPa	788.228
348.15 K, 37995 kPa	790.467
348.15 K, 40072 kPa	791.973
348.15 K, 41992 kPa	793.388
348.15 K, 45082 kPa	795.525
348.15 K, 48031 kPa	797.589
348.15 K, 52067 kPa	800.261
348.15 K, 55099 kPa	802.242
348.15 K, 60084 kPa	805.42
348.15 K, 62302 kPa	806.758
348.15 K, 65219 kPa	808.569
348.15 K, 66250 kPa	809.201
348.16 K, 12060 kPa	769.03
348.16 K, 25066 kPa	780.513
348.16 K, 32007 kPa	786.046
348.16 K, 32760 kPa	786.619
348.16 K, 32941 kPa	786.66
348.16 K, 50014 kPa	798.878
348.16 K, 58146 kPa	804.186
353.15 K, 98.1 kPa	752.221
353.15 K, 305.8 kPa	752.433
353.15 K, 384 kPa	752.511
353.15 K, 558.5 kPa	752.696
353.15 K, 929.4 kPa	753.125
353.15 K, 1073.7 kPa	753.289
353.15 K, 2082.7 kPa	754.432
353.15 K, 3025.9 kPa	755.465
353.15 K, 5017.9 kPa	757.656
353.15 K, 6957.8 kPa	759.69
353.15 K, 8976.6 kPa	761.781
353.15 K, 9990.3 kPa	762.812
353.15 K, 11934 kPa	764.803
353.15 K, 14917 kPa	767.603
353.15 K, 18020 kPa	770.471
353.15 K, 19983 kPa	772.259
353.15 K, 22060 kPa	773.965
353.15 K, 24899 kPa	776.429
353.15 K, 27951 kPa	778.961
353.15 K, 29947 kPa	780.584
353.15 K, 31942 kPa	782.185
353.15 K, 32982 kPa	782.978
353.15 K, 33037 kPa	783.002
353.15 K, 33907 kPa	783.604
353.15 K, 35053 kPa	784.493
353.15 K, 37939 kPa	786.664
353.15 K, 39830 kPa	788.076
353.15 K, 41863 kPa	789.556
353.15 K, 44753 kPa	791.642
353.15 K, 47880 kPa	793.816
353.15 K, 49780 kPa	795.14
353.15 K, 51876 kPa	796.535
353.15 K, 55023 kPa	798.765
353.15 K, 55678 kPa	799.178
